Assay results reported in the supplement of paper PMC10307832.

Tests used:
Assay in all cases: relative viability (nuclei count vs DMSO), 5 days (fraction); higher = more cells survive
Everolimus + Trametinib = compound: CO[C@H]1C[C@@H]2CC[C@@H](C)[C@@](O)(O2)C(=O)C(=O)N2CCCC[C@H]2C(=O)O[C@H]([C@H](C)C[C@@H]2CC[C@@H](OCCO)[C@H](OC)C2)CC(=O)[C@H](C)/C=C(\C)[C@@H](O)[C@@H](OC)C(=O)[C@H](C)C[C@H](C)/C=C/C=C/C=C/1C [Everolimus] + CC(=O)Nc1cccc(-n2c(=O)n(C3CC3)c(=O)c3c(Nc4ccc(I)cc4F)n(C)c(=O)c(C)c32)c1 [Trametinib] (partner 0.02 µM)
Method in brief: (§1)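 For relative viability, nuclei counts in treated wells were divided by those in vehicle wells. Lung cancer cell lines had been pin-tool dosed in 1536-well plates the day after seeding and cultured for 5 days, then fixed and stained in one step (final 0.05% Triton X-100, 1% formaldehyde, 1 ug/ml Hoechst) and imaged at 4×. Doses were one drug alone or a fixed anchor-drug dose plus five library-drug doses (not always all listed) in √10 steps, and values are duplicate-plate medians.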

Everolimus + Navitoclax = compound: CO[C@H]1C[C@@H]2CC[C@@H](C)[C@@](O)(O2)C(=O)C(=O)N2CCCC[C@H]2C(=O)O[C@H]([C@H](C)C[C@@H]2CC[C@@H](OCCO)[C@H](OC)C2)CC(=O)[C@H](C)/C=C(\C)[C@@H](O)[C@@H](OC)C(=O)[C@H](C)C[C@H](C)/C=C/C=C/C=C/1C [Everolimus] + CC1(C)CCC(c2ccc(Cl)cc2)=C(CN2CCN(c3ccc(C(=O)NS(=O)(=O)c4ccc(N[C@H](CCN5CCOCC5)CSc5ccccc5)c(S(=O)(=O)C(F)(F)F)c4)cc3)CC2)C1 [Navitoclax] (partner 0.5 µM)
Method in brief: as §1

Everolimus + Phenformin = compound: CO[C@H]1C[C@@H]2CC[C@@H](C)[C@@](O)(O2)C(=O)C(=O)N2CCCC[C@H]2C(=O)O[C@H]([C@H](C)C[C@@H]2CC[C@@H](OCCO)[C@H](OC)C2)CC(=O)[C@H](C)/C=C(\C)[C@@H](O)[C@@H](OC)C(=O)[C@H](C)C[C@H](C)/C=C/C=C/C=C/1C [Everolimus] + N=C(N)NC(=N)NCCc1ccccc1 [Phenformin] (partner 250 µM)
Method in brief: as §1

Everolimus + Pemetrexed = compound: CO[C@H]1C[C@@H]2CC[C@@H](C)[C@@](O)(O2)C(=O)C(=O)N2CCCC[C@H]2C(=O)O[C@H]([C@H](C)C[C@@H]2CC[C@@H](OCCO)[C@H](OC)C2)CC(=O)[C@H](C)/C=C(\C)[C@@H](O)[C@@H](OC)C(=O)[C@H](C)C[C@H](C)/C=C/C=C/C=C/1C [Everolimus] + Nc1nc2[nH]cc(CCc3ccc(C(=O)N[C@@H](CCC(=O)O)C(=O)O)cc3)c2c(=O)[nH]1 [Pemetrexed] (partner 0.2 µM)
Method in brief: as §1

| Cell Line | relative viability (Everolimus + Trametinib; first compound 0.01 µM) | relative viability (Everolimus + Trametinib; first compound 0.03162 µM) | relative viability (Everolimus + Trametinib; first compound 0.1 µM) | relative viability (Everolimus + Trametinib; first compound 0.3162 µM) | relative viability (Everolimus + Trametinib; first compound 1 µM) | relative viability (Everolimus + Navitoclax; first compound 0.01 µM) | relative viability (Everolimus + Navitoclax; first compound 0.03162 µM) | relative viability (Everolimus + Navitoclax; first compound 0.1 µM) | relative viability (Everolimus + Navitoclax; first compound 0.3162 µM) | relative viability (Everolimus + Navitoclax; first compound 1 µM) | relative viability (Everolimus + Phenformin; first compound 0.01 µM) | relative viability (Everolimus + Phenformin; first compound 0.03162 µM) | relative viability (Everolimus + Phenformin; first compound 0.1 µM) | relative viability (Everolimus + Phenformin; first compound 0.3162 µM) | relative viability (Everolimus + Phenformin; first compound 1 µM) | relative viability (Everolimus + Pemetrexed; first compound 0.01 µM) | relative viability (Everolimus + Pemetrexed; first compound 0.03162 µM) | relative viability (Everolimus + Pemetrexed; first compound 0.1 µM) | relative viability (Everolimus + Pemetrexed; first compound 0.3162 µM) | relative viability (Everolimus + Pemetrexed; first compound 1 µM) |
| --- | --- | --- | --- | --- | --- | --- | --- | --- | --- | --- | --- | --- | --- | --- | --- | --- | --- | --- | --- | --- |
| LC-2-ad | 0.961 | 0.957 | 0.948 | 0.964 | 0.891 | 0.339 | 0.245 | 0.284 | 0.245 | 0.236 | 0.54 | 0.502 | 0.54 | 0.516 | 0.491 | 0.275 | 0.301 | 0.286 | 0.291 | 0.253 |
| SK-MES-1 | 0.38 | 0.412 | 0.372 | 0.397 | 0.277 | 0.948 | 0.688 |  | 0.715 | 0.579 | 0.55 | 0.583 | 0.574 | 0.552 | 0.545 | 0.839 | 0.826 | 0.825 | 0.827 | 0.741 |
| A-427 | 0.472 | 0.482 | 0.472 | 0.556 | 0.574 | 0.622 | 0.404 | 0.409 | 0.388 | 0.461 | 0.281 | 0.357 | 0.278 | 0.254 | 0.289 | 0.757 | 0.856 | 0.799 | 0.788 | 0.891 |
| NCI-H322M | 0.474 | 0.504 | 0.495 | 0.463 | 0.484 | 1.21 | 1.05 | 0.905 | 0.902 | 0.79 | 0.647 | 0.658 | 0.629 | 0.714 | 0.701 | 0.597 | 0.598 | 0.554 | 0.597 | 0.618 |
| HCC-366 | 0.258 | 0.245 | 0.257 | 0.227 | 0.225 | 0.859 | 0.823 | 0.871 | 0.91 | 0.511 | 0.59 | 0.613 | 0.601 | 0.528 | 0.582 | 0.339 | 0.307 | 0.284 | 0.216 | 0.173 |
| NCI-H1975 | 0.389 | 0.373 | 0.287 | 0.276 | 0.226 | 1.01 | 0.794 | 0.802 | 0.798 | 0.606 | 0.378 | 0.383 | 0.387 | 0.367 | 0.323 | 0.37 | 0.343 | 0.353 | 0.345 | 0.339 |
| NCI-H1437 | 0.383 | 0.348 | 0.374 | 0.313 | 0.249 | 0.913 | 0.89 | 0.836 | 0.804 | 0.661 | 0.557 | 0.282 | 0.293 | 0.299 | 0.29 | 0.296 | 0.307 | 0.294 | 0.29 | 0.251 |
| NCI-H2009 | 0.132 | 0.121 | 0.14 | 0.138 | 0.158 | 1.04 | 1.09 | 0.898 | 0.814 | 0.836 | 0.427 | 0.464 | 0.421 | 0.451 | 0.402 | 0.986 | 0.98 | 0.927 | 0.848 | 0.771 |
| NCI-H1651 | 0.774 | 0.657 | 0.605 | 0.592 | 0.538 | 0.555 | 0.581 | 0.576 | 0.557 | 0.399 | 0.284 | 0.297 | 0.255 | 0.265 | 0.4 | 0.398 | 0.386 | 0.423 | 0.41 | 0.433 |
| NCI-H1666 | 0.832 | 0.911 | 0.867 | 0.851 | 0.705 | 0.766 | 0.687 | 0.508 | 0.559 | 0.42 | 0.555 | 0.575 | 0.617 | 0.577 | 0.539 | 0.884 | 0.859 | 0.93 | 0.885 | 0.825 |
| NCI-H1734 | 0.502 | 0.473 | 0.404 | 0.453 | 0.46 | 0.455 | 0.519 | 0.447 | 0.441 | 0.608 | 0.306 | 0.324 | 0.249 | 0.31 | 0.35 | 0.407 | 0.435 | 0.461 | 0.385 | 0.406 |
| EPLC-272H | 0.199 | 0.227 | 0.179 | 0.205 | 0.204 | 0.996 | 0.697 | 0.598 | 0.602 | 0.673 | 0.281 | 0.259 | 0.236 | 0.245 | 0.268 | 0.343 | 0.317 | 0.397 | 0.313 | 0.315 |
| NCI-H2023 | 0.259 | 0.216 | 0.247 | 0.187 | 0.225 | 0.763 | 0.471 | 0.529 | 0.536 | 0.348 | 0.309 | 0.375 | 0.343 | 0.277 | 0.266 | 0.18 | 0.174 | 0.201 | 0.19 | 0.142 |
| BEN | 0.494 | 0.447 | 0.467 | 0.484 | 0.46 | 0.0532 | 0.0623 | 0.063 | 0.0598 | 0.0645 | 0.289 | 0.249 | 0.273 | 0.24 | 0.26 | 0.552 | 0.458 | 0.501 | 0.521 | 0.618 |
